Tested on: in vitro grown Mycobacteria (M. tuberculosis)
Experiment: QUM: Quantification of in vitro grown Mycobacteria (in vitro growth fluorescence assay)
Assay type: cell-based
Settings: MIC, 80% bacterial growth inhibition, in vitro growth; for MIC: Mycobacterium tuberculosis, read-out: QUM
Excerpt: A 120,000 small molecule compound library was screened using a validated phenotypic cell-based assay (WO2010003533A2). Active compounds from the primary screen were confirmed via dose response in the intracellular (QIM) assay and an in vitro (QUM) assay, wherein the abbreviation “QIM” stands for Quantification of Intracellular Mycobacteria and the abbreviation “QUM” stands for Quantification of in vitro grown Mycobacteria. […] The MIC is the minimum concentration of compound required to obtain 80% bacterial growth inhibition.
The imidazopyridine compounds (scaffolds Ia and Ib; see Table 1) underwent derivatization according to the methods outlined below (Schemes 1-13). Resulting derivatives were examined for inhibitory activity (MIC) using the assays described above (Example 1) and the results are summarized in Table 1.

Q: With “6-Chloro-N-(4-(4-(cyclopentyloxymethyl)piperidin-1-yl)benzyl)-2-ethylimidazo[1,2-a]pyridine-3-carboxamide [Compound 293]” as the compound, how does the “QUM (μM)” value read?
A: +++ (+++ indicates <1 uM)

Q: `CCc1nc2cc(OC)ccn2c1C(=O)NCc1ccc(N2CCN(c3ccc(F)cc3)CC2)cc1` [Compound 114, 2-Ethyl-N-(4-(4-(4-fluorophenyl)piperazin-1-yl)benzyl)-7-methoxyimidazo[1,2-a]pyridine-3-carboxamide] was tested. Which MIC did it give?
A: < 1 µM

Q: With `CCc1nc2c(OC)cccn2c1C(=O)NCc1ccc(N2CCN(c3ccc(F)cc3)CC2)cc1` [Compound 115, 2-Ethyl-N-(4-(4-(4-fluorophenyl)piperazin-1-yl)benzyl)-8-methoxyimidazo[1,2-a]pyridine-3-carboxamide] as the compound, how does the MIC read?
A: < 1 µM

Q: Which MIC does the source give for `CCc1nc2cc(Cl)ccn2c1C(=O)NCc1ccc(N2CCC(COC3CCCC3)CC2)cc1` [Compound 169, 7-Chloro-N-(4-(4-(cyclopentyloxymethyl)piperidin-1-yl)benzyl)-2-ethylimidazo[1,2-a]pyridine-3-carboxamide] here?
A: < 1 µM

Q: For `CCc1nc2cc(Cl)ccn2c1C(=O)NCc1ccc(N2CCC(COC(F)F)CC2)cc1` [Compound 183, 7-Chloro-N-(4-(4-((difluoromethoxy)methyl)piperidin-1-yl)benzyl)-2-ethylimidazo[1,2-a]pyridine-3-carboxamide], which MIC is on record?
A: < 1 µM

Q: `CCc1nc2ccc(C)cn2c1C(=O)NCc1ccc(N2CCOCC2)cc1` [Compound 219, 2-ethyl-6-methyl-N-(4-morpholinobenzyl)imidazo[1,2-a]pyridine-3-carboxamide] was tested. Which MIC did it give?
A: < 1 µM

Q: For `CCc1nc2ccc(Cl)cn2c1C(=O)NCc1ccc(N2CCC(C(=O)O)CC2)cc1` [Compound 220, 1-(4-((6-Chloro-2-ethylimidazo[1,2-a]pyridine-3-carboxamido)methyl)phenyl)piperidine-4-carboxylic acid], which MIC is on record?
A: < 1 µM

Q: `CCc1nc2cc(Cl)ccn2c1C(=O)NCc1ccc(N2CC3CC=CCC3C2)cc1` (stereo not drawn) [Compound 223, 7-Chloro-N-(4-(3a,4-dihydro-1H-isoindol-2(3H,7H,7aH)-yl)benzyl)-2-ethylimidazo[1,2-a]pyridine-3-carboxamide] was tested. Which MIC did it give?
A: < 1 µM

Q: With `CCc1nc2cc(Cl)ccn2c1C(=O)NCc1ccc(N2CC3CCCCC3C2)cc1` (stereo not drawn) [Compound 224, N-(4-(1H-isoindol-2(3H,3aH,4H,5H,6H,7H,7aH)-yl)benzyl)-7-chloro-2-ethylimidazo[1,2-a]pyridine-3-carboxamide] as the compound, how does the MIC read?
A: < 1 µM

Q: Which MIC does the source give for `CCc1nc2cc(Cl)ccn2c1C(=O)NCc1ccc(-n2cc3c(c2)CCCC3)cc1` [Compound 225, 7-Chloro-2-ethyl-N-(4-(4,5,6,7-tetrahydro-2H-isoindol-2-yl)benzyl)imidazo[1,2-a]pyridine-3-carboxamide] here?
A: < 1 µM

Q: `CCc1nc2cc(C)ccn2c1C(=O)NCc1ccc(OC(F)(F)F)cc1` [Compound 249, 2-Ethyl-7-methyl-N-(4-(trifluoromethoxy)benzyl)imidazo[1,2-a]pyridine-3-carboxamide] was tested. Which MIC did it give?
A: < 1 µM

Q: `CCc1nc2cc(Br)ccn2c1C(=O)NCc1ccc(OC(F)(F)F)cc1` [Compound 250, 7-Bromo-2-ethyl-N-(4-(trifluoromethoxy)benzyl)imidazo[1,2-a]pyridine-3-carboxamide] was tested. Which MIC did it give?
A: < 1 µM

Q: For `CCc1nc2c(F)cccn2c1C(=O)NCc1ccc(OC(F)(F)F)cc1` [Compound 251, 2-Ethyl-8-fluoro-N-(4-(trifluoromethoxy)benzyl)imidazo[1,2-a]pyridine-3-carboxamide], which MIC is on record?
A: < 1 µM

Q: `CCc1nc2cc(Cl)ccn2c1C(=O)NCc1ccc(-c2ccc(C=O)cc2)cc1` [Compound 252, 7-Chloro-2-ethyl-N-((4′-formylbiphenyl-4-yl)methyl)imidazo[1,2-a]pyridine-3-carboxamide] was tested. Which MIC did it give?
A: < 1 µM

Q: `CCc1nc2ccc(C)cn2c1C(=O)NCc1ccc(Oc2ccc(OC(F)(F)F)cc2)cc1` [Compound 255, 2-Ethyl-6-methyl-N-(4-(4-(trifluoromethoxy)phenoxy)benzyl)imidazo[1,2-a]pyridine-3-carboxamide] was tested. Which MIC did it give?
A: < 1 µM

Q: For `CCc1nc2cc(Cl)ccn2c1C(=O)OCc1ccc(Oc2ccc(F)cc2)cc1` [Compound 264], which MIC is on record?
A: < 1 µM

Q: With `CCc1nc2ccccn2c1C(=O)NCc1ccc(N2CCC(c3ccc(F)cc3)CC2)cc1` [Compound 285, 2-Ethyl-N-(4-(4-(4-fluorophenyl)piperidin-1-yl)benzyl)imidazo[1,2-a]pyridine-3-carboxamide] as the compound, how does the MIC read?
A: < 1 µM

Q: With `CCc1nc2ccc(Cl)cn2c1C(=O)NCc1ccc(N2CCC(c3ccc(OC(F)(F)F)cc3)CC2)cc1` [Compound 289, 6-Chloro-2-ethyl-N-(4-(4-(4-(trifluoromethoxy)phenyl)piperidin-1-yl)benzyl)imidazo[1,2-a]pyridine-3-carboxamide] as the compound, how does the MIC read?
A: < 1 µM

Q: `CCc1nc2cc(Cl)ccn2c1C(=O)NCc1ccc(N2CCC(c3ccc(OC(F)(F)F)cc3)CC2)cc1` [Compound 290, 7-Chloro-2-ethyl-N-(4-(4-(4-(trifluoromethoxy)phenyl)piperidin-1-yl)benzyl)imidazo[1,2-a]pyridine-3-carboxamide] was tested. Which MIC did it give?
A: < 1 µM

Q: Which MIC does the source give for `CCOC(=O)C1CCN(c2ccc(CNC(=O)c3c(CC)nc4ccc(Cl)cn34)cc2)CC1` [Compound 300, Ethyl 1-(4-((6-chloro-2-ethylimidazo[1,2-a]pyridine-3-carboxamido)methyl)phenyl)piperidine-4-carboxylate] here?
A: < 1 µM

Q: `CCOC(=O)C1CCN(c2ccc(CNC(=O)c3c(CC)nc4cc(Cl)ccn34)cc2)CC1` [Compound 301, Ethyl 1-(4-((7-chloro-2-ethylimidazo[1,2-a]pyridine-3-carboxamido)methyl)phenyl)piperidine-4-carboxylate] was tested. Which MIC did it give?
A: < 1 µM

Q: For `CCc1nc2cc(Cl)ccn2c1C(=O)NCc1ccc(N2CCC(C(=O)O)CC2)cc1` [Compound 302, 1-(4-((7-Chloro-2-ethylimidazo[1,2-a]pyridine-3-carboxamido)methyl)phenyl)piperidine-4-carboxylic acid], which MIC is on record?
A: < 1 µM

Q: For `CCc1nc2c(Br)cccn2c1C(=O)NCc1ccc(N2CCN(c3ccc(F)cc3)CC2)cc1` [Compound 305, 8-Bromo-2-ethyl-N-(4-(4-(4-fluorophenyl)piperazin-1-yl)benzyl)imidazo[1,2-a]pyridine-3-carboxamide], which MIC is on record?
A: < 1 µM

Q: For `CCc1nc2c(-c3ccncc3)cccn2c1C(=O)NCc1ccc(N2CCN(c3ccc(F)cc3)CC2)cc1` [Compound 312, 2-Ethyl-N-(4-(4-(4-fluorophenyl)piperazin-1-yl)benzyl)-8-(pyridin-4-yl)imidazo[1,2-a]pyridine-3-carboxamide], which MIC is on record?
A: < 1 µM

Q: How did the MIC turn out when `CCc1nc2ccc(OC)cn2c1C(=O)NCc1ccc(N2CCOCC2)cc1` [Compound 313] was run?
A: < 1 µM

Q: `CCc1nc2cc(OC)ccn2c1C(=O)NCc1ccc(N2CCOCC2)cc1` [Compound 314, 2-Ethyl-7-methoxy-N-(4-morpholinobenzyl)imidazo[1,2-a]pyridine-3-carboxamide] was tested. Which MIC did it give?
A: < 1 µM

Q: `CCc1nc2c(OC)cccn2c1C(=O)NCc1ccc(N2CCOCC2)cc1` [Compound 318, 2-Ethyl-8-methoxy-N-(4-morpholinobenzyl)imidazo[1,2-a]pyridine-3-carboxamide] was tested. Which MIC did it give?
A: < 1 µM

Q: How did the MIC turn out when `CCc1nc2c(Br)cccn2c1C(=O)NCc1ccc(N2CCOCC2)cc1` [Compound 320, 8-Bromo-2-ethyl-N-(4-morpholinobenzyl)imidazo[1,2-a]pyridine-3-carboxamide] was run?
A: < 1 µM

Q: `CCc1nc2c(-c3ccncc3)cccn2c1C(=O)NCc1ccc(N2CCOCC2)cc1` [Compound 327, 2-Ethyl-N-(4-morpholinobenzyl)-8-(pyridin-4-yl)imidazo[1,2-a]pyridine-3-carboxamide] was tested. Which MIC did it give?
A: > 20 µM

Q: For `CCc1nc2ccc(Cl)cn2c1C(=O)NCc1ccc(C(=O)NCc2ccc(C(=O)N3CCOCC3)cc2)cc1` [Compound 332, 6-Chloro-2-ethyl-N-(4-((4-(morpholine-4-carbonyl)benzyl)carbamoyl)benzyl) imidazo[1,2-a]pyridine-3-carboxamide], which MIC is on record?
A: > 20 µM

Q: `CCc1nc2cc(Cl)ccn2c1C(=O)NCc1ccc(C(=O)N2CCOCC2)cc1` [Compound 333, 7-Chloro-2-ethyl-N-(4-(morpholine-4-carbonyl)benzyl)imidazo[1,2-a]pyridine-3-carboxamide] was tested. Which MIC did it give?
A: > 20 µM

Q: Which MIC does the source give for `CCc1nc2ccccn2c1C(=O)NCc1ccc2oc(-c3ccc(F)cc3)nc2c1` [Compound 334, 2-Ethyl-N-((2-(4-fluorophenyl)benzo[d]oxazol-5-yl)methyl)imidazo[1,2-a]pyridine-3-carboxamide] here?
A: < 1 µM

Q: Which MIC does the source give for `CCc1nc2ccc(Cl)cn2c1C(=O)NCc1ccc2oc(-c3ccc(F)cc3)nc2c1` [Compound 335, 6-Chloro-2-ethyl-N-((2-(4-fluorophenyl)benzo[d]oxazol-5-yl)methyl)imidazo[1,2-a]pyridine-3-carboxamide] here?
A: < 1 µM

Q: For `CCc1nc2cc(Cl)ccn2c1C(=O)NCc1ccc2oc(-c3ccc(F)cc3)nc2c1` [Compound 336, 7-Chloro-2-ethyl-N-((2-(4-fluorophenyl)benzo[d]oxazol-5-yl)methyl)imidazo[1,2-a]pyridine-3-carboxamide], which MIC is on record?
A: < 1 µM

Q: For `CCc1nc2ccc(Cl)cn2c1C(=O)NCc1ccc(N2CCC(c3ccc(Cl)cc3)CC2)cc1` [Compound 337, 6-Chloro-N-(4-(4-(4-chlorophenyl)piperidin-1-yl)benzyl)-2-ethylimidazo[1,2-a]pyridine-3-carboxamide], which MIC is on record?
A: < 1 µM

Q: For `CCc1nc2ccc(Cl)cn2c1C(=O)NCc1ccc(N2CCC(C(=O)N(C)C)CC2)cc1` [Compound 345, 6-Chloro-N-(4-(4-(dimethylcarbamoyl)piperidin-1-yl)benzyl)-2-ethylimidazo[1,2-a]pyridine-3-carboxamide], which MIC is on record?
A: < 1 µM

From US8865734B2 (priority 2010, dated 2014)
